Experiments:
[1] = test system: HEPM cells; assay: Growth stimulation in monolayer monitored by cell counting; format: cell-based, human; settings: 50 pM TGF-β1, 96 hours post-treatment
Procedure: FIG. 2 Bioactivity of TGF-β on HEPM cells: cell proliferation. Cell counts were taken at 24 hour intervals until 120 hours post treatment. The data is presented as the number of cells per well vs incubation time (hours). By 96 hours, cultures treated with 50 pM TGF-β1, ( ) had reached a cell density twice that of untreated cultures ( ).
Alternatively, growth stimulation in monolayer was monitored by cell counting. Cell monolayers were washed with PBS and then treated with 100 μl 0.25% trypsin solution at 37° C. until cells became detached from the culture surface. Fetal bovine serum (100 μl) was then added to each well to inhibit further action by trypsin. The resulting cell suspension was counted by the standard hemacytometer method. The viability of cells, greater than 98% in these examples, was determined by trypan blue dye-exclusion.

[2] = test system: HEPM cells; assay: Stimulation of anchorage independent growth assay (soft agar); format: cell-based, human; settings: 50 pM TGF-β1 at plating, colonies enumerated on day 13
Procedure: FIGS. 3(A) and 3(B) Bioactivity of TGF-β on HEPM cells: stimulation of growth in soft agar. Cells were treated with 50 pM TGF-β1, at the time of plating and colony formation was enumerated on day 13.
A 0.5 ml base layer of 0.5% agar (Agar Noble; Difco Laboratories, Detroit, Mich.) in growth medium was added to 24-well Costar tissue culture plates 0.5 ml 0.3% agar in growth medium containing 1×10^4 HEPM cells and various concentrations of TGF-β or other test samples was overlaid on the base layer of agar in triplicate wells. The plates were incubated at 37° C. in a humidifed atmosphere of 5% CO2 in air for up to 14 days without refeeding. Colonies were enumerated unfixed and unstained. The number of colonies with more than 6 cells were scored.

In the case of “TGF-β1: Transforming growth factor-Beta type 1; two identical disulfide linked subunits having molecular weights of 13,000; recombinant material used”, the “cell density compared with untreated cultures” value [1] is reported as “twice” and the “mean colony number in soft agar” value [2] is reported as 8±1.

Reference: US5340925A, “Normal human growth regulatory receptor for TGF-β” (Oncogen, priority 1992, dated 1994)
